Measured values as given in patent publication US6737383B1, “Herbicidal oxadiazolidines” (priority 1999, dated 2004).

Assays:
[1] = tested on: bedstraw; experiment: Test B pre/postemergence bedstraw; assay type: in vivo, Galium aparine
Text: (§1) Seeds of bedstraw (Galium aparine), blackgrass (Alopecurus myosuroides), surinam grass (Brachiaria decumbens), cocklebur (Xanthium strumarium), corn (Zea mays), crabgrass (Digitaria sanguinalis), giant foxtail (Setaria faberii), morningglory (Ipomoea hederacea), pigweed (Amaranthus retroflexus), rape (Brassica napus), soybean (Glycine max), sugar beet (Beta vulgaris), velvetleaf (Abutilon theophrasti), wheat (Triticum aestivum), wild oat (Avena fatua) and purple nutsedge (Cyperus rotundus) tubers were planted and treated preemnergence with test chemicals formulated in a non-phytotoxic solvent mixture which included a surfactant.
(§2) At the same time, these crop and weed species were also treated with postemergence applications of test chemicals formulated in the same manner. Plants ranged in height from 2 to 18 cm (1- to 4-leaf stage) for postemergence treatments. Plant species in the flood test consisted of rice (Oryza sativa), smallflower flatsedge (Cyperus difformis), duck salad (Heteranthera limosa) and bamyardgrass (Echinochloa crus-galli) grown to the 2-leaf stage for testing. Treated plants and controls were maintained in a greenhouse for twelve to sixteen days, after which all species were compared to controls and visually evaluated. Plant response ratings, summarized in Table B, are based on a scale of 0 to 10 where 0 is no effect and 10 is complete control. A dash (−) response means no test result.

[2] = tested on: blackgrass; experiment: Test B pre/postemergence blackgrass; assay type: in vivo, Alopecurus myosuroides
Text: as §1, §2

[3] = tested on: surinam grass; experiment: Test B pre/postemergence surinam grass; assay type: in vivo, Brachiaria decumbens
Text: as §1, §2

[4] = tested on: cocklebur; experiment: Test B pre/postemergence cocklebur; assay type: in vivo, Xanthium strumarium
Text: as §1, §2

[5] = tested on: corn; experiment: Test B pre/postemergence corn; assay type: in vivo, Zea mays
Text: as §1, §2

[6] = tested on: crabgrass; experiment: Test B pre/postemergence crabgrass; assay type: in vivo, Digitaria sanguinalis
Text: as §1, §2

[7] = tested on: giant foxtail; experiment: Test B pre/postemergence giant foxtail; assay type: in vivo, Setaria faberii
Text: as §1, §2

[8] = tested on: morningglory; experiment: Test B pre/postemergence morningglory; assay type: in vivo, Ipomoea hederacea
Text: as §1, §2

[9] = tested on: pigweed; experiment: Test B pre/postemergence pigweed; assay type: in vivo, Amaranthus retroflexus
Text: as §1, §2

[10] = tested on: rape; experiment: Test B pre/postemergence rape; assay type: in vivo, Brassica napus
Text: as §1, §2

[11] = tested on: soybean; experiment: Test B pre/postemergence soybean; assay type: in vivo, Glycine max
Text: as §1, §2

[12] = tested on: sugar beet; experiment: Test B pre/postemergence sugar beet; assay type: in vivo, Beta vulgaris
Text: as §1, §2

[13] = tested on: velvetleaf; experiment: Test B pre/postemergence velvetleaf; assay type: in vivo, Abutilon theophrasti
Text: as §1, §2

[14] = tested on: wheat; experiment: Test B pre/postemergence wheat; assay type: in vivo, Triticum aestivum
Text: as §1, §2

[15] = tested on: wild oat; experiment: Test B pre/postemergence wild oat; assay type: in vivo, Avena fatua
Text: as §1, §2

[16] = tested on: purple nutsedge; experiment: Test B pre/postemergence purple nutsedge; assay type: in vivo, Cyperus rotundus
Text: as §1, §2

[17] = Preemergence, Rate 62 g/ha, scale of 0 to 10 where 0 is no effect and 10 is complete control
[18] = Preemergence, Rate 500 g/ha, scale of 0 to 10 where 0 is no effect and 10 is complete control
[19] = Rate 62 g/ha, Postemergence, scale of 0 to 10 where 0 is no effect and 10 is complete control
[20] = Rate 125 g/ha, Postemergence, scale 0 to 10
[21] = Rate 125 g/ha, Preemergence, scale of 0 to 10 where 0 is no effect and 10 is complete control
[22] = Preemergence, Rate 250 g/ha, scale of 0 to 10 where 0 is no effect and 10 is complete control
[23] = Rate 500 g/ha, Postemergence, scale 0 to 10, 0 no effect, 10 complete control

For `CC(C)N(C(=O)n1oc(=O)n(C(C)C(=O)c2ccccc2)c1=O)c1ccc(F)cc1` (stereo not shown) [Compound 260], which “Bedstraw plant response rating” value [1, 17] is on record?
Its value is 0.

And the “Plant response rating, Bedstraw” value [1, 18]?
Its value is 5.

What about the “Bedstraw plant response rating” value [1, 19] of the same compound?
Its value is 6.

What about the “Bedstraw plant response rating” value [1, 20] of the same compound?
Its value is 7.

And the “Bedstraw plant response rating” value [1, 21]?
Its value is 0.

And the “Blackgrass plant response rating” value [2, 17]?
Its value is 0.

What about the “Blackgrass plant response rating” value [2, 22] of the same compound?
Its value is 2.

What about the “Plant response rating, Blackgrass” value [2, 18] of the same compound?
Its value is 3.

What about the “Blackgrass plant response rating” value [2, 19] of the same compound?
The value was 0.

And the “Blackgrass plant response rating” value [2, 20]?
Its value is 0.

What about the “Blackgrass plant response rating” value [2, 21] of the same compound?
Its value is 0.

What about the “Plant response rating (0 to 10; 0 is no effect, 10 is complete control), Blackgrass” value ([2]; Rate 250 g/ha, Postemergence) of the same compound?
The value was 0.

And the “Blackgrass plant response rating” value [2, 23]?
The value was 0.

What about the “B. signalgrass plant response rating” value [3, 17] of the same compound?
The value was 0.

What about the “B. signalgrass plant response rating” value [3, 22] of the same compound?
The value was 0.

And the “Plant response rating, B. signalgrass” value [3, 18]?
Its value is 3.

And the “B. signalgrass plant response rating” value [3, 19]?
The value was 0.

And the “B. signalgrass plant response rating” value ([3]; Rate 125 g/ha, Postemergence, scale 0 (no effect) to 10 (complete control))?
Its value is 0.

What about the “B. signalgrass plant response rating” value [3, 21] of the same compound?
The value was 0.

And the “Plant response rating (0 to 10; 0 is no effect, 10 is complete control), B. signalgrass” value ([3]; Rate 250 g/ha, Postemergence)?
Its value is 0.

What about the “B. signalgrass plant response rating” value [3, 23] of the same compound?
Its value is 0.

What about the “Cocklebur plant response rating” value [4, 17] of the same compound?
Its value is 0.

What about the “Cocklebur plant response rating” value [4, 22] of the same compound?
Its value is 0.

And the “Plant response rating, Cocklebur” value [4, 18]?
Its value is 0.

What about the “Cocklebur plant response rating” value [4, 19] of the same compound?
Its value is 0.

And the “Cocklebur plant response rating” value [4, 20]?
Its value is 0.

What about the “Cocklebur plant response rating” value [4, 21] of the same compound?
Its value is 0.

And the “Plant response rating (0 to 10; 0 is no effect, 10 is complete control), Cocklebur” value ([4]; Rate 250 g/ha, Postemergence)?
Its value is 0.

And the “Cocklebur plant response rating” value [4, 23]?
The value was 0.

What about the “Corn plant response rating” value [5, 17] of the same compound?
Its value is 0.

And the “Corn plant response rating” value [5, 22]?
Its value is 0.

What about the “Plant response rating, Corn” value [5, 18] of the same compound?
The value was 0.

What about the “Corn plant response rating” value [5, 19] of the same compound?
The value was 0.

And the “Corn plant response rating” value [5, 20]?
Its value is 0.

And the “Corn plant response rating” value [5, 21]?
Its value is 0.

And the “Plant response rating (0 to 10; 0 is no effect, 10 is complete control), Corn” value ([5]; Rate 250 g/ha, Postemergence)?
Its value is 0.

What about the “Corn plant response rating” value [5, 23] of the same compound?
Its value is 0.

And the “Crabgrass plant response rating” value [6, 17]?
The value was 0.

What about the “Crabgrass plant response rating” value [6, 22] of the same compound?
The value was 6.

And the “Plant response rating, Crabgrass” value [6, 18]?
The value was 9.

And the “Crabgrass plant response rating” value [6, 21]?
The value was 2.

And the “Plant response rating (0 to 10; 0 is no effect, 10 is complete control), Crabgrass” value ([6]; Rate 250 g/ha, Postemergence)?
Its value is 0.

And the “Crabgrass plant response rating” value [6, 23]?
The value was 0.

And the “Giant foxtail plant response rating” value [7, 17]?
Its value is 3.

What about the “Giant foxtail plant response rating” value [7, 22] of the same compound?
The value was 8.

What about the “Plant response rating, Giant foxtail” value [7, 18] of the same compound?
Its value is 10.

What about the “Giant foxtail plant response rating” value [7, 21] of the same compound?
The value was 7.

And the “Plant response rating (0 to 10; 0 is no effect, 10 is complete control), Giant foxtail” value ([7]; Rate 250 g/ha, Postemergence)?
The value was 0.

And the “Giant foxtail plant response rating” value [7, 23]?
Its value is 0.

And the “Morningglory plant response rating” value [8, 17]?
Its value is 0.

What about the “Morningglory plant response rating” value [8, 22] of the same compound?
Its value is 0.

What about the “Plant response rating, Morningglory” value [8, 18] of the same compound?
Its value is 0.

What about the “Morningglory plant response rating” value [8, 21] of the same compound?
The value was 0.

And the “Plant response rating (0 to 10; 0 is no effect, 10 is complete control), Morningglory” value ([8]; Rate 250 g/ha, Postemergence)?
The value was 3.

What about the “Morningglory plant response rating” value [8, 23] of the same compound?
The value was 4.

What about the “Redroot pigweed plant response rating” value [9, 17] of the same compound?
Its value is 0.

What about the “Redroot pigweed plant response rating” value [9, 22] of the same compound?
The value was 4.

What about the “Plant response rating, Redroot pigweed” value [9, 18] of the same compound?
Its value is 4.

And the “Redroot pigweed plant response rating” value [9, 21]?
Its value is 0.

And the “Plant response rating (0 to 10; 0 is no effect, 10 is complete control), Redroot pigweed” value ([9]; Rate 250 g/ha, Postemergence)?
Its value is 3.

What about the “Redroot pigweed plant response rating” value [9, 23] of the same compound?
Its value is 6.

And the “Rape plant response rating” value [10, 17]?
The value was 0.

And the “Rape plant response rating” value [10, 22]?
Its value is 0.

What about the “Plant response rating, Rape” value [10, 18] of the same compound?
Its value is 0.

And the “Rape plant response rating” value [10, 21]?
Its value is 0.

What about the “Plant response rating (0 to 10; 0 is no effect, 10 is complete control), Rape” value ([10]; Rate 250 g/ha, Postemergence) of the same compound?
The value was 0.

And the “Rape plant response rating” value [10, 23]?
Its value is 0.

What about the “Soybean plant response rating” value [11, 17] of the same compound?
The value was 0.

What about the “Soybean plant response rating” value [11, 22] of the same compound?
Its value is 0.

What about the “Plant response rating, Soybean” value [11, 18] of the same compound?
Its value is 0.

And the “Soybean plant response rating” value [11, 21]?
The value was 0.

And the “Soybean plant response rating” value [11, 23]?
The value was 1.

What about the “Sugarbeets plant response rating” value [12, 17] of the same compound?
Its value is 0.

And the “Sugarbeets plant response rating” value [12, 22]?
Its value is 0.

And the “Plant response rating, Sugarbeets” value [12, 18]?
Its value is 0.

And the “Sugarbeets plant response rating” value [12, 21]?
Its value is 0.

And the “Sugarbeets plant response rating” value [12, 23]?
The value was 3.

And the “Velvetleaf plant response rating” value [13, 17]?
Its value is 0.

And the “Velvetleaf plant response rating” value [13, 22]?
Its value is 0.

And the “Plant response rating, Velvetleaf” value [13, 18]?
The value was 0.

What about the “Velvetleaf plant response rating” value [13, 21] of the same compound?
Its value is 0.

And the “Velvetleaf plant response rating” value [13, 23]?
The value was 1.

What about the “Wheat plant response rating” value [14, 17] of the same compound?
Its value is 0.

What about the “Wheat plant response rating” value [14, 22] of the same compound?
Its value is 0.

What about the “Plant response rating, Wheat” value [14, 18] of the same compound?
Its value is 0.

And the “Wheat plant response rating” value [14, 21]?
The value was 0.

What about the “Wheat plant response rating” value [14, 23] of the same compound?
The value was 0.

What about the “Wild oats plant response rating” value [15, 17] of the same compound?
The value was 0.

What about the “Wild oats plant response rating” value [15, 22] of the same compound?
The value was 0.

What about the “Plant response rating, Wild oats” value [15, 18] of the same compound?
Its value is 0.

And the “Wild oats plant response rating” value [15, 21]?
The value was 0.

And the “Wild oats plant response rating” value [15, 23]?
Its value is 0.

What about the “Nutsedge plant response rating” value [16, 17] of the same compound?
The value was 0.

What about the “Nutsedge plant response rating” value [16, 22] of the same compound?
Its value is 0.

And the “Nutsedge plant response rating” value [16, 21]?
The value was 0.

And the “Plant response rating (0 to 10; 0 is no effect, 10 is complete control), Nutsedge” value ([16]; Rate 250 g/ha, Postemergence)?
Its value is 0.

What about the “Nutsedge plant response rating” value [16, 23] of the same compound?
Its value is 0.
